Results reported in ChEMBL document CHEMBL5634134, “Design, synthesis, and biological evaluation of novel 4,4'-bipyridine derivatives acting as CDK9-Cyclin T1 protein-protein interaction inhibitors against triple-negative breast cancer” (Eur J Med Chem, 2023).
Calls of active or inactive are those of the source. The rule behind the calls is not given here.

Assays:
[1] = Toxicity in athymic BALB/c mouse implanted with mouse 4T1 cells assessed as body weight loss at 12.5 mg/kg, ip administered for 14 days; assay type: organism-based; conditions: in vivo, 336 h, time 14 day
[2] = Toxicity in mouse assessed as median lethal dose administered intraperitoneally for 16 days; conditions: in vivo, route ip, time 16 day
MDA-MB-231 [3] = assay: Inhibition of cell invasion in human MDA-MB-231 cells incubated for 24 hrs by crystal violet staining based transwell matrix penetration assay; assay type: functional; conditions: dose 37-1000 nM
[4] = Cytotoxicity against human L02 cells assessed as inhibition of cell growth incubated for 72 hrs by MTT assay; assay type: toxicity, cell-based
[5] = Cytotoxicity against human MRC5 cells assessed as inhibition of cell growth incubated for 72 hrs by MTT assay; assay type: toxicity, cell-based
MDA-MB-231 [6] = assay: Induction of apoptosis in human MDA-MB-231 cells assessed as early apoptotic cells at 333 nM incubated for 72 hrs by Annexin V-FITC/PI staining based flow cytometry analysis (reference value: 0.66 %); assay type: functional
[7] = AUC (0 to infinity) in Sprague-Dawley rat at 50 mg/kg, ip measured afer 24 hrs by LC-MS/MS analysis; assay type: ADME, organism-based; conditions: in vivo
[8] = Tmax in Sprague-Dawley rat at 50 mg/kg, ip measured afer 24 hrs by LC-MS/MS analysis; assay type: ADME, organism-based; conditions: in vivo
MDA-MB-231 [9] = assay: Inhibition of cell invasion in human MDA-MB-231 cells at 1000 nM incubated for 24 hrs by crystal violet staining based transwell matrix penetration assay; assay type: functional
MDA-MB-231 [10] = assay: Induction of apoptosis in human MDA-MB-231 cells transfected with shCDK9 assessed as reduction in Bcl-2 expression at 300 nM by Western blot analysis; assay type: functional, cell-based
MDA-MB-231 [11] = assay: Antiproliferative activity against human MDA-MB-231 cells assessed as inhibition of 3D tumor growth at 100 nM incubated for 10 days in presence of olaparib by confocal laser scanning microscopic analysis; assay type: functional, cell-based; conditions: time 10.0 day
MDA-MB-231 [12] = assay: Induction of apoptosis in human MDA-MB-231 cells assessed as early apoptotic cells at 1000 nM incubated for 72 hrs by Annexin V-FITC/PI staining based flow cytometry analysis (reference value: 0.66 %); assay type: functional
MDA-MB-231 [13] = assay: Induction of apoptosis in human MDA-MB-231 cells assessed as late apoptotic cells at 333 nM incubated for 72 hrs by Annexin V-FITC/PI staining based flow cytometry analysis (reference value: 4.04 %); assay type: functional
[14] = Toxicity in athymic BALB/c mouse implanted with mouse 4T1 cells assessed as body weight loss at 25 mg/kg, ip administered for 14 days; assay type: organism-based; conditions: in vivo, 336 h, time 14 day
MDA-MB-231 [15] = assay: Effect on C-Myc protein expression in human MDA-MB-231 cells transfected with shCDK9 at 300 nM by Western blot analysis; assay type: functional, cell-based
[16] = Toxicity in athymic BALB/c mouse implanted with mouse 4T1 cells assessed as lung tissue damage at 12.5 to 25 mg/kg, ip administered for 14 days; assay type: organism-based; conditions: in vivo, 336 h, dose 12.5-25 mg/kg, time 14 day
[17] = Toxicity in athymic BALB/c mouse implanted with mouse 4T1 cells assessed as heart tissue damage at 12.5 to 25 mg/kg, ip administered for 14 days; assay type: organism-based; conditions: in vivo, 336 h, dose 12.5-25 mg/kg, time 14 day
MDA-MB-231 [18] = assay: Induction of apoptosis in human MDA-MB-231 cells assessed as late apoptotic cells at 111 nM incubated for 72 hrs by Annexin V-FITC/PI staining based flow cytometry analysis (reference value: 4.04 %); assay type: functional
MDA-MB-231 [19] = assay: Effect on RNA polymerase II phosphorylation at Ser2 residue in human MDA-MB-231 cells transfected with shCDK9 at 300 nM by Western blot analysis; assay type: functional, cell-based
MDA-MB-231 [20] = assay: Induction of apoptosis in human MDA-MB-231 cells assessed as necrotic cells at 111 nM incubated for 72 hrs by Annexin V-FITC/PI staining based flow cytometry analysis (reference value: 0.49 %); assay type: functional
MDA-MB-231 [21] = assay: Induction of apoptosis in human MDA-MB-231 cells assessed as early apoptotic cells at 111 nM incubated for 72 hrs by Annexin V-FITC/PI staining based flow cytometry analysis (reference value: 0.66 %); assay type: functional
MDA-MB-231 [22] = assay: Inhibition of colony formation in human MDA-MB-231 cells assessed as reduction in colony size incubated for 10 days by crystal violet staining based analysis; assay type: functional, cell-based; conditions: dose 12-1000 nM, time 10.0 day
MDA-MB-231 [23] = assay: Antiproliferative activity against human MDA-MB-231 cells assessed as decrease in sphere size by measuring diameter at 100 nM incubated for 10 days in presence of olaparib by confocal laser scanning microscopy; assay type: functional; conditions: time 10 day
[24] = Toxicity in mouse assessed as death rate at 750 mg/kg, ip administered for 16 days relative to control; assay type: organism-based; conditions: in vivo, time 16 day, read-out: Activity
MDA-MB-231 [25] = assay: Induction of apoptosis in human MDA-MB-231 cells assessed as early apoptotic cells at 37 nM incubated for 72 hrs by Annexin V-FITC/PI staining based flow cytometry analysis (reference value: 0.66 %); assay type: functional
[26] = MRT (0 to infinity) in Sprague-Dawley rat at 50 mg/kg, ip measured afer 24 hrs by LC-MS/MS analysis; assay type: ADME, organism-based; conditions: in vivo
[27] = molecular target: Cyclin-dependent kinase 12 (Homo sapiens) (UniProt Q9NYV4); assay: Binding affinity to CDK12 in human MDA-MB-231 cells asssesed as thermal stabilization at 1 uM incubated for 8 hrs under 45 to 65 degreeC by Western blot analysis; assay type: cell-based
[28] = Cytotoxicity against HK-2 cells assessed as inhibition of cell growth incubated for 72 hrs by MTT assay; assay type: toxicity, cell-based; conditions: human
[29] = molecular target: Cyclin-dependent kinase 2 (Homo sapiens) (UniProt P24941); assay: Binding affinity to CDK2 in human MDA-MB-231 cells asssesed as thermal stabilization at 1 uM incubated for 8 hrs under 45 to 65 degreeC by Western blot analysis; assay type: cell-based
[30] = Toxicity in mouse assessed as death rate at 1000 mg/kg, ip administered for 16 days relative to control; assay type: organism-based; conditions: in vivo, time 16 day, read-out: Activity
MDA-MB-231 [31] = assay: Induction of apoptosis in human MDA-MB-231 cells assessed as viable cells at 37 nM incubated for 72 hrs by Annexin V-FITC/PI staining based flow cytometry analysis (reference value: 94.81 %); assay type: functional; conditions: read-out: Activity
MDA-MB-231 [32] = assay: Antiproliferative activity against human MDA-MB-231 cells assessed as decrease in sphere size by measuring sphere diameter at 100 nM incubated for 10 days by confocal laser scanning microscopy (reference value: 508.27 micrometer); assay type: functional; conditions: time 10 day
MDA-MB-231 [33] = assay: Induction of apoptosis in human MDA-MB-231 cells assessed as viable cells at 111 nM incubated for 72 hrs by Annexin V-FITC/PI staining based flow cytometry analysis (reference value: 94.81 %); assay type: functional; conditions: read-out: Activity
MDA-MB-231 [34] = assay: Inhibition of colony formation in human MDA-MB-231 cells assessed as reduction in colony number incubated for 10 days by crystal violet staining based analysis; assay type: functional, cell-based; conditions: dose 12-1000 nM, time 10.0 day
MDA-MB-231 [35] = assay: Antimetastasis activity in human MDA-MB-231 cells assessed as wound closure at 0.1 uM and measured upto 48 hrs by inverted microscope analysis (reference value: 46 %); assay type: functional
MDA-MB-231 [36] = assay: Synergistic antiproliferative activity against human MDA-MB-231 cells assessed as inhibition of cell growth incubated for 48 hrs in presence of varying concentrations of olaparib by MTT assay; assay type: functional, cell-based; conditions: dose 0.01-4 µM

Chain of Cyclin-dependent kinase 12 (Homo sapiens) (Q9NYV4 whole entry, looked up): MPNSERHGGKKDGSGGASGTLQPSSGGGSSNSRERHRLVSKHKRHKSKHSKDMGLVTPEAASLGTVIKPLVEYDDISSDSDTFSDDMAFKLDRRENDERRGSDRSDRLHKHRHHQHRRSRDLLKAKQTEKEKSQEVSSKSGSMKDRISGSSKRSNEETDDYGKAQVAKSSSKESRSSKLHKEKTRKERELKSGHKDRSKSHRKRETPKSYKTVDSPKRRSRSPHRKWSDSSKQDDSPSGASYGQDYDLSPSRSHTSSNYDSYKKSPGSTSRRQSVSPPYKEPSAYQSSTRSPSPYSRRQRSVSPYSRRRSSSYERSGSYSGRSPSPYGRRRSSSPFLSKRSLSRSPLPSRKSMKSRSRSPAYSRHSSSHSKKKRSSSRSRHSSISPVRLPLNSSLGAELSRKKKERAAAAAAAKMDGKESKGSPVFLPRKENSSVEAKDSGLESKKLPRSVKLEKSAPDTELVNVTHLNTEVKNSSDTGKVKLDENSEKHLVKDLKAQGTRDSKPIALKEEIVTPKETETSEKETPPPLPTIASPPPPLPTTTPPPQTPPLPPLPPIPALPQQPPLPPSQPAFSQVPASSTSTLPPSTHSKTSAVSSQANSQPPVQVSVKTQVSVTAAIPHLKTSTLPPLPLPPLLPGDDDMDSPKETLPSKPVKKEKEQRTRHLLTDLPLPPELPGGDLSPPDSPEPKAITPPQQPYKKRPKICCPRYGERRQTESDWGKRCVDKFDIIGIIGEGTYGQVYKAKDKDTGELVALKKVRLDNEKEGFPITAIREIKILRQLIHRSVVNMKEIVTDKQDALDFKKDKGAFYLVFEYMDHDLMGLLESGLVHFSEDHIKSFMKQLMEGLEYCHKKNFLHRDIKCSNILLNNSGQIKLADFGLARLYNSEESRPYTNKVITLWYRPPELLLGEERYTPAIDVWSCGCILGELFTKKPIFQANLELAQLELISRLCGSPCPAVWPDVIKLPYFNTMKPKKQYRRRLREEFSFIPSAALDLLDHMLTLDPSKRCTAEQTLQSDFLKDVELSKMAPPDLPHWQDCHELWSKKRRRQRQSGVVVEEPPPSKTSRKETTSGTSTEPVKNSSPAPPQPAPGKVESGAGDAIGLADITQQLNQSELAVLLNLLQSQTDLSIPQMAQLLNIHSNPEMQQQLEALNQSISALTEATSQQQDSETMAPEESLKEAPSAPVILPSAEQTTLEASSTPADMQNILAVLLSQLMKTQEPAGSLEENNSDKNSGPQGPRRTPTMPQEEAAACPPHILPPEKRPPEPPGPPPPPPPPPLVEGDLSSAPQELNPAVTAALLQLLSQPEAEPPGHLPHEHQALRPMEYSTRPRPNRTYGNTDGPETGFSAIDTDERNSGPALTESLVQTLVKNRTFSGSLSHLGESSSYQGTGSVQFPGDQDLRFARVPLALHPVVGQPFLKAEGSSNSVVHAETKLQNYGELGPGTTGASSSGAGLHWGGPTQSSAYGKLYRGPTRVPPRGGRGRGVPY

COc1ccc(C(=O)Nc2cc(-c3ccnc(N4CCC(O)CC4)c3)ccn2)cc1
Activity [1]: Non-Toxic
LD50 at 384 h [2]: 750 mg/kg
inhibition (MDA-MB-231 [3]): Dose-Dependent Effect
IC50 at 72 h [4]: 756 nM
IC50 at 72 h [5]: 335 nM
Activity (MDA-MB-231 [6]): 20.4%
AUC(0-inf) [7]: 17000 ng·h/mL
Tmax [8]: 30 min
inhibition (MDA-MB-231 [9]): Active
Activity (MDA-MB-231 [10]): inactive
Activity (MDA-MB-231 [11]): Active
Activity (MDA-MB-231 [12]): 14.2%
Activity (MDA-MB-231 [13]): 48.6%
Activity [14]: Toxic
Activity (MDA-MB-231 [15]): inactive
Activity [16]: Non-Toxic
Activity [17]: Non-Toxic
Activity (MDA-MB-231 [18]): 34.93%
Activity (MDA-MB-231 [19]): inactive
Activity (MDA-MB-231 [20]): 0.17%
Activity (MDA-MB-231 [21]): 21.3%
inhibition (MDA-MB-231 [22]): Dose-Dependent Effect
Activity (MDA-MB-231 [23]): 310.56 um
mortality at 384 h [24]: 40%
Activity (MDA-MB-231 [25]): 3.14%
MRT inf [26]: 75.6 min
Activity [27]: inactive
IC50 at 72 h [28]: 481 nM
Activity [29]: inactive
mortality at 384 h [30]: 100%
viability at 0.037 µM (MDA-MB-231 [31]): 83.6%
Activity (MDA-MB-231 [32]): 429.81 um
viability at 0.111 µM (MDA-MB-231 [33]): 43.6%
inhibition (MDA-MB-231 [34]): Dose-Dependent Effect
Activity (MDA-MB-231 [35]): 18%
Activity (MDA-MB-231 [36]): Dose-Dependent Effect
